Measurements reported in BindingDB's records for doi:10.7270/Q2H70D7S (Burnham Center For Chemical Genomics, 2010).

Biological target: Kappa-type opioid receptor (Homo sapiens, UniProt P41145)
Test: kappa opioid receptor blockers, cell-based, luminescence, beta-arrestin, SAR follow-up (AID 2285)

Chain of Kappa-type opioid receptor (P41145 whole entry): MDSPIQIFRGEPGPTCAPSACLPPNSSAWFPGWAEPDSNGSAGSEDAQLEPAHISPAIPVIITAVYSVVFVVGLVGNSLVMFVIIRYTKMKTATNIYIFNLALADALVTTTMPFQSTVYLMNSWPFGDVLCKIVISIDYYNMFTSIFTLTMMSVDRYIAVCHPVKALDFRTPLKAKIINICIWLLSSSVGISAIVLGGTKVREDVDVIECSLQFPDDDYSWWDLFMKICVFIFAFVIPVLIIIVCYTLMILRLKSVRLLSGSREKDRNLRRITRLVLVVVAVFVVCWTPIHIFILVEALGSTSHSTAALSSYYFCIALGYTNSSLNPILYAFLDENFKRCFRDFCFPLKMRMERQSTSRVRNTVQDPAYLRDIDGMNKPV

Row | Structure (SMILES) | IC50 [µM]
1 | Oc1ccc(CN=Nc2ccnc3cc(Cl)ccc23)cc1O [(4Z)-4-[[2-(7-chloroquinolin-4-yl)hydrazinyl]methylidene]-2-hydroxycyclohexa-2,5-dien-1-one] | 10
2 | CCC(N=Nc1ccnc2cc(Cl)ccc12)c1ccc(O)cc1 (configuration not stated) [4-[1-[2-(7-chloroquinolin-4-yl)hydrazinyl]propylidene]cyclohexa-2,5-dien-1-one] | 3.54
